The values below come from paper PMC8231256, “Influence of N-Methylation and Conformation on Almiramide Anti-Leishmanial Activity” (Molecules, 2021).

Read-outs that look alike come from different tables or passages of the source. Where a SMILES comes first, the peptide text is derived from it. [ ]: non-standard residue; d: D form. The star is where a group is joined. NMeF = CN[C@@H](Cc1ccccc1)C(=O)O; NMeV = CN[C@H](C(=O)O)C(C)C; Hept6ynoyl = C#CCCCCC(=O)*; NMeA = CN[C@@H](C)C(=O)O; NH(CH2)6NH2 = NCCCCCCN*

The test system of one data set is Leishmania donovani. More on the design: method as in PMID 20441198. Particulars: cited from earlier work; for selectivity index (CC50/EC50): Vero kidney cells CC50 vs L. donovani.
Data set [1] deals with L. infantum Sb2000.1 (resistant to antimony) promastigotes. In kind it is cell-based, Leishmania infantum. The note with it: strain resistant to 2 mM antimonials, 72 h, 25 °C, 95% CI in brackets (n = 3), read-out: Ldi Sb-Res EC50. Here is the method: (§1) The biological activity of peptides 15–37 was assessed against the L. infantum wild-type stain (WT), as well as mutants resistant to the common anti-leishmanial agents, such as antimony (Sb^III), amphotericin B (AmB) and miltefosine (MF): Sb2000.1, AmB1000.1 and MF200.5. Activity against Leishmania promastigotes was determined by monitoring the replication of parasites after 72 h of incubation at 25 °C in the presence of increasing concentrations of the different peptides […] and reported as EC50 values (Table 2). […] The greatest potencies were observed using analogs against the amphotericin B resistant strain (e.g., AmB1000.1).
(§2) The L. infantum (MHOM/MA/67/ITMAP-263) wild-type stain (WT), as well as the resistant mutants Sb2000.1, AmB1000.1 and MF200.5 [53, 54, 55, 56, 57, 58], resistant to antimony (Sb^III), amphotericin B (AmB) and miltefosine (MF), respectively, were grown in M199 medium at 25 °C supplemented with 10% fetal bovine serum, 5 μg/mL of haemin at pH 7.0 and 2000 μM Sb (Potassium antimonyl tartrate, Sigma-Aldrich), 200 μM of MF (Miltefosine, Cayman Chem., Ann Arbor, MI, USA) or 1 μM AmB (Amphotericin B solution, Sigma, Oakville, ON, Canada). Antileishmanial values were determined in Leishmania promastigotes by monitoring the replication of parasites after 72 h of incubation at 25 °C in the presence of increasing concentrations of the different peptides by measuring A600 using a Cytation 5 machine (BioTek, Winooski, VT, USA). EC50 values were calculated based on dose–response curves analyzed by non-linear regression with GraphPad Prism 8.4.3 software (GraphPad Software, La Jolla, CA, USA). An average of at least three independent biological replicates from independent cultures was performed for each determination.

The test system of data set [2] is L. infantum MF200.5 (resistant to miltefosine) promastigotes. It is filed as cell-based, Leishmania infantum. Particulars: for EC50: strain resistant to 200 µM miltefosine, promastigotes, 72 h, 25 °C, 95% CI in brackets (n = 3), read-out: Ldi MF-Res EC50. Here is the method:
as §1, §2

The test system of data set [3] is L. infantum (MHOM/MA/67/ITMAP-263) wild-type strain (WT) promastigotes. It is filed as cell-based, Leishmania infantum. The note with it: for EC50: 72 h; for Selectivity Index: SI = CC50 (LM-1 macrophage)/EC50 Ldi WT. Here is the method:
as §1, §2

The test system of data set [4] is L. infantum AmB1000.1 (resistant to amphotericin B) promastigotes. In kind it is cell-based, Leishmania infantum. Particulars: for EC50: strain resistant to 1 µM amphotericin B, promastigotes, 72 h, 25 °C, 95% CI in brackets (n = 3), read-out: Ldi AmB-Res EC50; for fold more active than nonmethylated counterpart: AmB1000.1, 17 vs 16, 35 vs 31. Here is the method: as §1, §2

Data set [5] can be described thus: LM-1 macrophage cytotoxicity (Alamar Blue). The note with it: for CC50 at 24 h: mouse. It is filed as cell-based, murine. Here is the method: The host cytotoxicity was evaluated by monitoring the survival rates of murine LM-1 macrophage at different concentrations of peptides 15–37 ([…]) over 24 h. […] Exceptionally, MeAla peptide amide 21 was 3.2- to 8-fold less toxic than the other peptide analogs.
The LM1- macrophages were grown in DMEM supplemented with 10% heat inactivated FBS. Cells at the concentration of 100,000 cells/mL were cultivated for 24 h in a 96-well plate (37 °C, 5% CO2). The culture medium was removed and fresh medium containing the appropriate drug and concentration was added to the cells, which were incubated for 24 h (37 °C, 5% CO2). Seven different concentrations were tested ([…]) as well as controls (without drugs). After 24 h, the culture medium was removed and replaced for fresh medium containing 10% Alamar Blue (Thermo Fisher Scientific, Waltham, MA, USA) and incubated for 2 h (37 °C, 5% CO2). Readings at 570 and 600 nm (Asys UVM340 Plate reader, Biochrom, Cambridge, UK) were taken and analyzed according to the manufacturer protocol. Survival rates at different drug concentrations and CC50 values were calculated using the Excel software.
(The colour change of resazurin is a common sign of viable cells or microbes.)

The mark [6] stands for this setting: MHOM/MA/67/ITMAP-263) wild-type strain (WT) promastigotes.
The mark [7] stands for this setting: promastigotes, 25 °C, 95% confidence interval in brackets (n = 3), read-out: Ldi WT EC50.
The mark [8] stands for this setting: LM-1 macrophages, 24 h, Alamar Blue, read-out: CC50.

Almiramide C [compound 3]: in the data set with Leishmania donovani, the “selectivity index (CC50/EC50)” value is listed as 17.4 and the “activity against Leishmania donovani” value was “low μM activity”.

For the compound almiramide A [compound 1], the “activity against Leishmania donovani” value in the data set on Leishmania donovani is “inactive”.

What is called EC50 is the concentration that produces a half-maximal response. Usually CC50 stands for the concentration at which the toxic effect on the cells reaches its halfway point. On to `C#CCCCCC(=O)N[C@H](C(=O)N[C@H]1CCN([C@H](C(=O)N[C@@H](C)C(=O)N[C@@H](Cc2ccccc2)C(=O)O)C(C)C)C1=O)C(C)C` [peptide 24, HCC(CH2)4CO-Val-Agl-Val-Ala-Phe-OH], for which the EC50 in data set [1] stood at 251 µM; in data set [2] it was 238 µM; in data set [3] (setting [6]), 248 µM; in data set [4], 261 µM. Moreover, in data set [3], the “Selectivity Index” value is on record as 1.6. Besides, in data set [5], the CC50 at 24 h turned out to be 398 µM.

Take `C#CCCCCC(=O)N[C@H](C(=O)N[C@H]1CCN([C@H](C(=O)N[C@@H](C)C(=O)N[C@@H](Cc2ccccc2)C(=O)NCCCCCCN)C(C)C)C1=O)C(C)C` [peptide 30, HCC(CH2)4CO-Val-Agl-Val-Ala-Phe-NH(CH2)6NH2]: the EC50 was 37.6 µM in data set [1], 129 µM in data set [2], 47.4 µM in data set [3] (setting [6]) and 114 µM in data set [4]. Besides, the “Selectivity Index” value in data set [3] is on record as 8.6. This compound came in with a CC50 at 24 h in data set [5] of 407 µM.

Regarding `C#CCCCCC(=O)N(C)[C@H](C(=O)N(C)[C@H](C(=O)N(C)[C@H]1CCN([C@@H](C)C(=O)N(C)[C@@H](Cc2ccccc2)C(=O)O)C1=O)C(C)C)C(C)C` [peptide 28, HCC(CH2)4CO-Val(Me)-Val(Me)-Agl(Me)-Ala-Phe(Me)-OH], the EC50 was 250 µM in data set [1], 282 µM in data set [2], 255 µM in data set [3] (setting [6]) and over 300 µM in data set [4]. Besides, the “Selectivity Index” value in data set [3] was found to be 0.9. In data set [5], this compound showed a CC50 at 24 h of 245 µM.

For `C#CCCCCC(=O)N[C@H](C(=O)N[C@H](C(=O)N[C@H](C(=O)N[C@H]1CCN([C@@H](Cc2ccccc2)C(=O)NCCCCCCN)C1=O)C(C)C)C(C)C)C(C)C` [peptide 32, HCC(CH2)4CO-Val-Val-Val-Agl-Phe-NH(CH2)6NH2], the EC50 in data set [1] was determined as 87.8 µM; in data set [2] it was 84.2 µM; in data set [3] (setting [6]), 91.2 µM; in data set [4], 90.1 µM. Moreover, the “Selectivity Index” value in data set [3] is given as 4.3. In data set [5], this compound displayed a CC50 at 24 h of 389 µM.

As for Almiramide B [compound 2], in the data set with Leishmania donovani, the “selectivity index (CC50/EC50)” value is reported as 21.8 and the “activity against Leishmania donovani” value is “low μM activity”.

Turning to `C#CCCCCC(=O)N(C)[C@H](C(=O)N(C)[C@H](C(=O)N(C)[C@H]1CCN([C@@H](C)C(=O)N(C)[C@@H](Cc2ccccc2)C(=O)NCCCCCCN)C1=O)C(C)C)C(C)C` [peptide 35, HCC(CH2)4CO-Val(Me)-Val(Me)-Agl(Me)-Ala-Phe(Me)-NH(CH2)6NH2], the EC50 in data set [1] came to 81.5 µM; in data set [2] it was 85.3 µM; in data set [3] (setting [6]), 78.6 µM; in data set [4] it was 92 µM. Also, the “fold more active than nonmethylated counterpart” value in data set [2] (MF200.5, 35 vs 31) stood at 1.5 fold; in data set [4], 1.4 fold. Moreover, the “Selectivity Index” value in data set [3] is recorded as 4.7. For the same compound, the CC50 at 24 h in data set [5] came out at 371 µM.

With `C#CCCCCC(=O)N(C)[C@H](C(=O)N(C)[C@H]1CCN([C@H](C(=O)N(C)[C@@H](C)C(=O)N(C)[C@@H](Cc2ccccc2)C(=O)O)C(C)C)C1=O)C(C)C` [peptide 27, HCC(CH2)4CO-Val(Me)-Agl(Me)-Val-Ala(Me)-Phe(Me)-OH], the EC50 was 296 µM in data set [1], over 300 µM in data set [2], 284 µM in data set [3] (setting [7]) and over 300 µM in data set [4]. Also, the “Selectivity Index” value in data set [3] is on record as 1.0. For the same compound, the CC50 at 24 h in data set [5] (setting [8]) stood at 295 µM.

Take `C#CCCCCC(=O)N(C)[C@H](C(=O)N(C)[C@H](C(=O)N(C)[C@H](C(=O)N(C)[C@@H](C)C(=O)N(C)[C@@H](Cc1ccccc1)C(=O)NCCCCCCN)C(C)C)C(C)C)C(C)C` [peptide 17, HCC(CH2)4CO-Val(Me)-Val(Me)-Val(Me)-Ala(Me)-Phe(Me)-NH(CH2)6NH2] (Hept6ynoyl-[NMeV][NMeV][NMeV][NMeA][NMeF]-{NH(CH2)6NH2}): the concentration for a half-maximal effect (EC50) in data set [1] turned out to be 60.2 µM; in data set [2], 25.5 µM; in data set [3] (setting [7]), 48.4 µM; in data set [4], 5.6 µM. For the same compound, the “Selectivity Index” value in data set [3] is recorded as 6.9. Moreover, in data set [4], the “fold more active than nonmethylated counterpart” value amounted to 4 fold. In addition, the CC50 at 24 h in data set [5] (setting [8]) amounted to 338 µM.

For the compound `C#CCCCCC(=O)N[C@H]1CCN([C@H](C(=O)N[C@H](C(=O)N[C@@H](C)C(=O)N[C@@H](Cc2ccccc2)C(=O)O)C(C)C)C(C)C)C1=O` [peptide 23, HCC(CH2)4CO-Agl-Val-Val-Ala-Phe-OH], the EC50 in data set [1] came to 241 µM; in data set [2], 232 µM; in data set [3] (setting [6]), 225 µM; in data set [4], 212 µM. Further, in data set [3], the “Selectivity Index” value worked out at 1.61. This compound returned a CC50 at 24 h in data set [5] of 363 µM.

Turning to `C#CCCCCC(=O)N[C@H](C(=O)Nn1c(C)cn([C@H](C(=O)N[C@@H](C)C(=O)N[C@@H](Cc2ccccc2)C(=O)O)C(C)C)c1=O)C(C)C` [peptide 37, HCC(CH2)4CO-Val-(5-Me)Nai-Val-Ala-Phe-OH], the EC50 in data set [1], in data set [2], in data set [3] (setting [7]) and in data set [4] was over 300 µM throughout. The CC50 at 24 h in data set [5] was 407 µM.

As for `C#CCCCCC(=O)N[C@H]1CCN([C@H](C(=O)N[C@H](C(=O)N[C@@H](C)C(=O)N[C@@H](Cc2ccccc2)C(=O)NCCCCCCN)C(C)C)C(C)C)C1=O` [peptide 29, HCC(CH2)4CO-Agl-Val-Val-Ala-Phe-NH(CH2)6NH2], the EC50 turned out to be 90.4 µM in data set [1], 67.9 µM in data set [2], 75 µM in data set [3] (setting [6]) and 72 µM in data set [4]. Moreover, the “Selectivity Index” value in data set [3] is listed as 5.5. In data set [5], this compound registered a CC50 at 24 h of 416 µM.

Take `C#CCCCCC(=O)N[C@H](C(=O)N[C@H](C(=O)N[C@H](C(=O)N[C@H]1CCN([C@H](Cc2ccccc2)C(=O)NCCCCCCN)C1=O)C(C)C)C(C)C)C(C)C` [R-32, HCC(CH2)4CO-Val-Val-Val-Agl-D-Phe-NH(CH2)6NH2]: the EC50 is 111 µM in data set [1], 123 µM in data set [2], 92.6 µM in data set [3] (setting [6]) and 118 µM in data set [4]. Further, the “Selectivity Index” value in data set [3] worked out at 3.6. In data set [5], this compound returned a CC50 of 338 µM.

Turning to `C#CCCCCC(=O)N[C@H](C(=O)N[C@H](C(=O)N[C@H]1CCN([C@@H](C)C(=O)N[C@@H](Cc2ccccc2)C(=O)NCCCCCCN)C1=O)C(C)C)C(C)C` [peptide 31, HCC(CH2)4CO-Val-Val-Agl-Ala-Phe-NH(CH2)6NH2], the EC50 in data set [1] was found to be 48.8 µM; in data set [2], 126 µM; in data set [3] (setting [6]) it was 64.6 µM; in data set [4] it was 130 µM. In data set [3], the “Selectivity Index” value is listed as 6.0. Moreover, in data set [5], the CC50 at 24 h amounted to 389 µM.
